Data reported in PubChem BioAssay AID2009 (NMMLSC, 2009).
Calls of active or inactive are those of the source.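 Rule for the calls: active = EC50 of 30 microM or lower and a span of response of at least a set limit; inactive = the rest.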

Target: Cdc42 activated mutant (human), GST fusion
Experiment: activated mutant Cdc42 GTP-binding inhibitors, SAR follow-up, biochemical, oxadiazole analogs, multiplex bead flow cytometry, Ki (AID 2009)
Conditions: Bead-based flow cytometry, Bodipy-FL-GTP binding; for Ki: measured here: Ki calculated from EC50

EC50	Ki	SMILES
> 30 µM (inactive)	–	COc1ccc(-c2noc(CCC(=O)N3CCN(c4ccc(C(F)(F)F)cc4)CC3)n2)cc1
1.66 µM	0.26 µM	Cc1ccc(C)c(N2CCN(C(=O)CCc3nc(-c4ccc(Cl)cc4)no3)CC2)c1
3.08 µM	0.48 µM	COc1ccc(-c2noc(CCC(=O)N3CCN(c4ccccc4OC)CC3)n2)cc1
2 µM	0.31 µM	COc1ccc(-c2noc(CCC(=O)N3CCN(c4ccccc4C(F)(F)F)CC3)n2)cc1
1.69 µM	0.26 µM	Cc1ccc(C)c(N2CCN(C(=O)CCc3nc(-c4ccccc4C(F)(F)F)no3)CC2)c1
3.91 µM	0.6 µM	Cc1ccc(C)c(N2CCN(C(=O)CCc3nc(-c4cccc(Cl)c4)no3)CC2)c1
inactive	0.02 µM	COc1ccc(-c2noc(CCC(=O)N3CCN(c4ccc(Cl)cc4)CC3)n2)cc1
0.621 µM	0.1 µM	Cc1ccc(C)c(N2CCN(C(=O)CCc3nc(-c4ccccc4)no3)CC2)c1
1.68 µM	0.26 µM	COc1ccc(-c2coc(CCC(=O)N3CCN(c4cc(C)ccc4C)CC3)n2)cc1
inactive	0.11 µM	COc1ccc(-c2noc(CCC(=O)N3CCN(c4ccccc4)CC3)n2)cc1
1.63 µM	0.25 µM	COc1ccc(-c2noc(CCC(=O)N3CCC(c4cc(C)ccc4C)CC3)n2)cc1
3.68 µM	0.57 µM	COc1cccc(-c2noc(CCC(=O)N3CCN(c4cc(C)ccc4C)CC3)n2)c1
1.19 µM	0.18 µM	Cc1ccc(C)c(N2CCN(C(=O)CCc3nc(-c4ccccc4Br)no3)CC2)c1
2.67 µM	0.41 µM	Cc1ccc(C)c(N2CCN(C(=O)CCc3nc(-c4cccc(C(F)(F)F)c4)no3)CC2)c1
1.38 µM	0.21 µM	COc1ccc(-c2noc(CCC(=O)N3CCN(c4cccc(C)c4C)CC3)n2)cc1
2.03 µM	0.31 µM	COc1ccc(-c2noc(CCC(=O)N3CCN(c4ccccc4Cl)CC3)n2)cc1
inactive	0.19 µM	COc1ccc(-c2noc(CCC(=O)N3CCN(c4ccc(C)cc4)CC3)n2)cc1
5.16 µM	0.8 µM	COc1ccc(-c2noc(CCCC(=O)N3CCN(c4cc(C)ccc4C)CC3)n2)cc1
2.66 µM	0.41 µM	Cc1ccc(C)c(N2CCN(C(=O)CCc3nc(-c4ccc(Br)cc4)no3)CC2)c1
inactive	0.17 µM	COc1ccc(-c2noc(CCC(=O)N3CCN(c4cccc(F)c4)CC3)n2)cc1
1.05 µM	0.16 µM	COc1ccc(-c2noc(CCC(=O)N3CCN(c4ccccc4C)CC3)n2)cc1
> 30 µM (inactive)	–	COc1ccc(-c2noc(CCC(=O)N3CCN(c4cccc(Br)c4)CC3)n2)cc1
4.05 µM	0.63 µM	COc1ccc(-c2cccc(CCC(=O)N3CCN(c4cc(C)ccc4C)CC3)c2)cc1
1.84 µM	0.28 µM	Cc1ccc(C)c(N2CCN(C(=O)CCc3nc(-c4cccc(F)c4)no3)CC2)c1
4.98 µM	0.77 µM	Cc1ccc(C)c(N2CCN(C(=O)CCc3nc(-c4ccc(C(F)(F)F)cc4)no3)CC2)c1
1.45 µM	0.22 µM	COc1ccc(-c2cc(CCC(=O)N3CCN(c4cc(C)ccc4C)CC3)on2)cc1

EC50	Ki	SMILES
inactive	0.76 µM	COc1ccc(-c2noc(CCC(=O)N3CCN(c4cccc(OC)c4)CC3)n2)cc1
1.07 µM	0.17 µM	COc1ccc(-c2noc(CCC(=O)N3CCN(c4ccccc4F)CC3)n2)cc1
2.34 µM	0.36 µM	Cc1ccc(C)c(N2CCN(C(=O)CCc3nc(-c4cccc(Br)c4)no3)CC2)c1
3.03 µM	0.47 µM	Cc1ccc(-c2noc(CCC(=O)N3CCN(c4cc(C)ccc4C)CC3)n2)cc1
2.28 µM	0.35 µM	COc1ccc(-c2noc(CCC(=O)N3CCN(c4cc(C)ccc4C)CC3)n2)cc1
1.85 µM	0.29 µM	Cc1cccc(-c2noc(CCC(=O)N3CCN(c4cc(C)ccc4C)CC3)n2)c1
> 30 µM (inactive)	–	COc1ccc(-c2noc(CCC(=O)N3CCN(c4ccc(Br)cc4)CC3)n2)cc1
1.51 µM	0.23 µM	Cc1ccc(C)c(N2CCN(C(=O)CCc3nc(-c4ccccc4F)no3)CC2)c1
0.951 µM	0.15 µM	Cc1ccc(C)c(N2CCN(C(=O)CCc3nc(-c4ccccc4Cl)no3)CC2)c1
0.665 µM	0.1 µM	Cc1ccc(C)c(N2CCN(C(=O)CCc3nc(-c4ccc(F)cc4)no3)CC2)c1
> 30 µM (inactive)	–	COc1ccc(-c2cc(CCC(=O)N3CCN(c4cc(C)ccc4C)CC3)[nH]n2)cc1
1.54 µM	0.24 µM	Cc1ccc(C)c(N2CCN(C(=O)CCc3nc(-c4ccccc4C)no3)CC2)c1
17.4 µM	2.69 µM	COc1ccc(-c2noc(CCCCC(=O)N3CCN(c4cc(C)ccc4C)CC3)n2)cc1
> 30 µM (inactive)	–	COc1ccc(-c2ccc(CCC(=O)N3CCN(c4cc(C)ccc4C)CC3)[nH]2)cc1
4.91 µM	0.76 µM	COc1ccccc1-c1noc(CCC(=O)N2CCN(c3cc(C)ccc3C)CC2)n1
1.43 µM	0.22 µM	COc1ccc(-c2noc(CCC(=O)N3CCN(c4ccccc4Br)CC3)n2)cc1
> 30 µM (inactive)	–	COc1ccc(-c2ccc(CCC(=O)N3CCN(c4cc(C)ccc4C)CC3)o2)cc1
2.94 µM	0.46 µM	COc1ccc(-c2ccc(CCC(=O)N3CCN(c4cc(C)ccc4C)CC3)s2)cc1
1.66 µM	0.26 µM	Cc1ccc(C)c(N2CCN(C(=O)CCc3nc(-c4ccc(N(C)C)cc4)no3)CC2)c1
7.13 µM	1.1 µM	COc1ccc(-c2noc(CCC(=O)N3CCN(c4cccc(Cl)c4)CC3)n2)cc1
inactive	1.77 µM	COc1ccc(-c2noc(CC(=O)N3CCN(c4cc(C)ccc4C)CC3)n2)cc1
inactive	0.14 µM	COc1ccc(-c2noc(CCC(=O)N3CCN(c4ccc(F)cc4)CC3)n2)cc1
> 30 µM (inactive)	–	COc1ccc(-c2noc(CCC(=O)N3CCN(c4cccc(C(F)(F)F)c4)CC3)n2)cc1
2.34 µM	0.36 µM	COc1ccc(-c2noc(CCC(=O)N3CCN(c4cccc(C)c4)CC3)n2)cc1
0.7 µM	0.11 µM	COc1ccc(-c2noc(CCC(=O)N3CCN(c4ccc(OC)cc4)CC3)n2)cc1
